Test results taken from ChEMBL document CHEMBL4184335, “Synthesis, Structure-Activity Relationships, and Preclinical Evaluation of Heteroaromatic Amides and 1,3,4-Oxadiazole Derivatives as 5-HT4 Receptor Partial Agonists” (J Med Chem, 2018).

Columns and labels:
[1] = in vivo; conditions: Wistar, rat, po, 10 mg/kg
[2] = in vivo; conditions: Wistar, rat, po, 3 mg/kg
[3] = in vivo; conditions: Wistar, rat
[4] = in vivo; conditions: Wistar, rat, po, 3 mg/kg; remark: listed apart in the source
[5] = in vitro; conditions: human, liver microsomes
[6] = in vitro; conditions: rat, liver microsomes
[7] = in vivo; conditions: Wistar, rat, iv, 1 mg/kg

SMILES	Kp at 1 h ([1]; brain)	bioavailability [2] [%]	AUC [3] [ng·h/mL]	Cmax [4] [ng/mL]	metabolised at 0.5 h [5] [%]	metabolised at 0.5 h [6] [%]	clearance [7] [mL/min/kg]	Kp at 1 h ([1]; brain and plasma)
CC(C)c1nc(C(=O)NCC2C3CN(C4CCOCC4)CC23)n2ccccc12 (stereo unspecified)	4	15	121	60	24.4	0	62	
OC1(CN2CCC(COc3noc4cccc(O[C@@H]5CCOC5)c34)CC2)CCOCC1 [PF-04995274]		5.4	94	85	71.9	87.3	29	0.7
COCCCN1CCC(NC(=O)c2cc(Cl)c(N)c3c2OCC3)CC1 [PRUCALOPRIDE]		84	828	285	22.1	36.9	113	
CC(C)n1c(=O)c(C(=O)NCCCN2CCCCC2)c(O)c2ccsc21 [PRX-03140]		2			22.1	36.9		1.5
COCCCN1CCC(CNC(=O)c2cccn3nc(C(C)C)nc23)CC1					2.7	23.4		
